Reference: PMC11172375, “Preclinical Evaluation of Biodistribution and Toxicity of [^211At]PSMA-5 in Mice and Primates for the Targeted Alpha Therapy against Prostate Cancer” (International Journal of Molecular Sciences, 2024)
Entries after “also recorded” stand apart in the source; their conditions may differ.

How the values were obtained:
[1] = TLC metabolite analysis of blood samples, monkeys; type: in vivo; conditions: cynomolgus monkeys, plasma
Experimental: (§1) Monkeys were anesthetized with intramuscular administration of ketamine (10 mg/kg) and xylazine (0.5 mg/kg) with isoflurane inhalation anesthesia. Planar and Single Photon Emission Computed Tomography (SPECT) imaging was performed in monkeys using a γ-camera system (E-cam, Siemens, Erlangen, Germany) immediately after administration to 1 h and at 3 and 24 h post-administration of [^211At]PSMA-5 (9 MBq/kg), targeting the X-rays emitted from the daughter nuclide ^211Po (energy window: 79 keV ± 20%). Subsequent image analysis was performed by setting the regions of interest using Osirix MD software (Version 13, Pixmeo SARL, Bernex, Switzerland) and PMOD software (Version 3.903, PMOD Technologies, Fällanden, Switzerland). Blood samples were obtained pre-administration and at 1, 3, and 24 h post-administration, followed by euthanasia via bloodletting at 24 h.
The blood samples were centrifuged at 3000 rpm for 5 min, and the resulting plasma was mixed with twice the volume of ethanol, then agitated vigorously. The supernatants were analyzed by thin-layer chromatography (TLC).

[2] = Histological evaluation in monkeys; type: in vivo, cynomolgus monkeys; conditions: 9 MBq/kg, 24 h
Experimental: (§2) [^211At]PSMA-5 was administered intravenously to 25 mice, and its biodistribution was evaluated. For the toxicity study, three doses of [^211At]PSMA-5 (5, 12, and 35 MBq/kg, single dose) or saline were intravenously administered to 10 mice/group for the main evaluation point on day 1, and 5-mice/group for recovery evaluation on day 14, adhering to the ICH M3 (R2) guidelines. The dosage was determined based on our previous study using [^211At]NaAt. The monkeys were monitored for 24 h post-administration of [^211At]PSMA-5 (9 MBq/kg).
(§3) The brain, salivary gland, thyroid, heart, lungs, liver, kidney, adrenal gland, pancreas, spleen, thymus, stomach, small intestine, large intestine, bladder, prostate, and testes were collected on days 1 or 14 in mice and at 24 h in monkeys. Additionally, the pituitary gland, tongue, trachea, esophagus, mesenteric lymph nodes, epididymis, seminal vesicles, skin, mammary glands, spinal cord, bone, bone marrow (femur), eyeball, and optic nerve were collected from the mice. After fixation, paraffin sections were prepared and stained with hematoxylin and eosin (HE). All the specimens were evaluated by an expert in toxic pathology using an integrated fluorescence microscope (BZ-X810; Keyence Corporation. Osaka, Japan). In mice, the brain, salivary glands, heart, lungs, liver, gallbladder, spleen, kidneys, and testes were weighed according to ICH S4 guideline.

[3] = Blood chemistry analysis in monkeys; type: in vivo, cynomolgus monkeys; conditions: for ALB / ALP / ALT / AMY / AST / BUN / CK / CRE / K / LDH / Na / TBIL / TCHO / TG / TP / γ-GTP / GLU: monkeys, 9 MBq/kg i.v.
Experimental: as §2, §1
A blood cell counter was used for the measurements (CB-1010; ARKRAY, Inc., Kyoto, Japan). Red blood cell count (RBC), hemoglobin concentration (Hb), hematocrit (Ht), white blood cell count (WBC), platelet count (platelet), lymphocytes (%Lymph), monocytes (%Mon), and granulocytes (%Gra) were calculated. Plasma was analyzed using a dry clinical chemistry analyzer (Spotchem D-00 QR D-02; ARKRAY, Inc., Kyoto, Japan). The levels of aspartate aminotransferase (AST), alanine aminotransferase (ALT), gamma-glutamyl transpeptidase (γ-GTP), lactate dehydrogenase (LDH), alkaline phosphatase (ALP), creatine kinase (CK), amylase (AMY), total bilirubin (TBIL), creatinine (CRE), urea nitrogen (BUN), glucose (GLU), total protein (TP), albumin (ALB), total cholesterol (TCHO), triglyceride (TG), and electrolytes (Na, K, and Cl) were measured.

[4] = Extended single-dose toxicity study in mice: general condition, body weight, organ weight; type: in vivo, ICR mice; conditions: for testes organ weight: day 14
Experimental: This study was conducted in compliance with the Animal Experiment Regulations and the Act on Welfare and Management of Animals of the Osaka University Graduate School of Medicine (approval numbers: 04-070 and 04-094). Normal male ICR mice (n = 85, 5–6 weeks old, body weight: 29.4 ± 2.3 g) and cynomolgus monkey (n = 2, body weight: 2.10 and 2.05 kg) were purchased from Japan SLC Inc. (Hamamatsu, Japan) and Hamri Co., Ltd. (Ibaraki, Japan), respectively. The animals were housed under a 12 h light/12 h dark cycle. General condition and body weight were monitored.
as §2, §3

[5] = 24 hrs, might be affected by hemolysis

SMILES: O=C(O)CC[C@H](NC(=O)N[C@@H](CCCCNC(=O)[C@@H](Cc1ccc2ccccc2c1)NC(=O)c1ccc(CNC(=O)[C@@H](CCC(=O)O)NC(=O)[C@@H](CCC(=O)O)NC(=O)Cc2ccc([211At])cc2)cc1)C(=O)O)C(=O)O [[^211At]PSMA-5]
- metabolites in blood samples (TLC) [1]: no metabolites were detected
- administration-related pathology in brain, salivary glands, thyroid, heart, liver, gallbladder, pancreas, rectum, kidney, bladder, adrenal glands, prostate [2]: No pathological abnormalities
- crypt epithelial cells of the small and large (cecum) intestines [2]: Mild single-cell necrosis/apoptosis
- tingible body macrophages in white pulp of the spleen, intraparotid and intrapulmonary lymph nodes [2]: mild increase
- LDH levels ([3]; cynomolgus monkeys, 9 MBq/kg): elevated in both monkeys
- renal function or electrolyte levels ([3]; cynomolgus monkeys, 9 MBq/kg): No significant changes
- monkeys with a mild increase in amylase ([3]; cynomolgus monkeys, 9 MBq/kg, 24 h post-administration): 1/2
- ALB ([3]; 1 hr): 2.5 ± 0.4 g/dL
- ALP ([3]; 1 hr): 835 ± 173.6 IU/L
- ALT ([3]; 1 hr): 11.3 ± 1.8 IU/L
- AMY ([3]; 1 hr): 291 ± 62.2 IU/L
- AST ([3]; 1 hr): 13.3 ± 4.6 IU/L
- BUN ([3]; 1 hr): 24.8 ± 2.5 mg/dL
- CK ([3]; 1 hr): 496 ± 321.4 IU/L
- CRE ([3]; 1 hr): 0.5 ± 0.2 mg/dL
- K ([3]; 1 hr): 4.3 ± 0.2 mEq/L
- LDH ([3]; 1 hr): 231 ± 27.9 IU/L
- Na ([3]; 1 hr): 140 ± 2.8 mEq/L
- TBIL ([3]; 1 hr): 0.3 ± 0.1 mg/dL
- TCHO ([3]; 1 hr): 84 ± 24 mg/dL
- TG ([3]; 1 hr): 25.5 ± 0.7 mg/dL
- TP ([3]; 1 hr): 3.6 ± 0.4 g/dL
- γ-GTP ([3]; 1 hr): 61.8 ± 8.1 IU/L
- GLU ([3]; 1 hr, suggests contamination from the infusion fluid): 309 ± 177 mg/dL
- ALB ([3]; 3 hrs): 2.5 ± 0.1 g/dL
- ALP ([3]; 3 hrs): 890 ± 47.4 IU/L
- ALT ([3]; 3 hrs): 12 ± 2.8 IU/L
- AMY ([3]; 3 hrs): 342 ± 38.2 IU/L
- BUN ([3]; 3 hrs): 27 ± 1.4 mg/dL
- CK ([3]; 3 hrs): 522 ± 101.8 IU/L
- CRE ([3]; 3 hrs): 0.75 ± 0.21 mg/dL
- GLU ([3]; 3 hrs): 62 ± 56.6 mg/dL
- K ([3]; 3 hrs): 4.9 ± 0.4 mEq/L
- LDH ([3]; 3 hrs): 255 ± 4.9 IU/L
- Na ([3]; 3 hrs): 143 ± 0 mEq/L
- TBIL ([3]; 3 hrs): 0.3 ± 0.0 mg/dL
- TCHO ([3]; 3 hrs): 91 ± 17 mg/dL
- TG ([3]; 3 hrs): 28 ± 4.2 mg/dL
- TP ([3]; 3 hrs): 3.7 ± 0.1 g/dL
- γ-GTP ([3]; 3 hrs): 66.5 ± 19.1 IU/L
- ALB ([3]; 24 hrs): 2.7 ± 0 g/dL
- ALP ([3]; 24 hrs): 768 ± 34.4 IU/L
- ALT ([3]; 24 hrs): 24.8 ± 21 IU/L
- AMY ([3]; 24 hrs): 565 ± 197 IU/L
- BUN ([3]; 24 hrs): 35.7 ± 2.4 mg/dL
- CK ([3]; 24 hrs): 713 ± 293.9 IU/L
- CRE ([3]; 24 hrs): 0.7 ± 0.0 mg/dL
- GLU ([3]; 24 hrs): 77.7 ± 1.4 mg/dL
- K ([3]; 24 hrs): 4 ± 0.2 mEq/L
- Na ([3]; 24 hrs): 146 ± 3.1 mEq/L
- TBIL ([3]; 24 hrs): 0.7 ± 0.3 mg/dL
- TCHO ([3]; 24 hrs): 90.7 ± 0.5 mg/dL
- TG ([3]; 24 hrs): 28.7 ± 4.7 mg/dL
- TP ([3]; 24 hrs): 4.2 ± 0.4 g/dL
- γ-GTP ([3]; 24 hrs): 65 ± 17.9 IU/L
- AST [3, 5]: 38.7 ± 19.3 IU/L
- LDH [3, 5]: 471 ± 30.2 IU/L
- STD10 in human after body surface area conversion ([4]; converted from mice): > 2.8 MBq/kg
- body weight compared to the control ([4]; mice, 12 MBq/kg, day 5): significant decrease in body weight
- testes organ weight ([4]; mice, 12 MBq/kg): 0.18 ± 0.02 g
- body weight compared to the control ([4]; mice, 35 MBq/kg, day 10): significant decrease in body weight
- testes organ weight ([4]; mice, 35 MBq/kg): 0.17 ± 0.003 g
- severe toxicity or death ([4]; mice, highest dose 35 MBq/kg, 14-day observation): No severe toxicity or death was observed; also recorded: no severe toxicity
- STD10 (dose that causes severe toxicity in 10% of test animals) ([4]; mice, single i.v. dose): exceed 35 MBq/kg
